In the supplement of paper PMC11061612:

What was measured:
Gemcitabine = compound: Nc1ccn([C@@H]2O[C@H](CO)[C@@H](O)C2(F)F)c(=O)n1 [Gemcitabine]; conditions: max 0.3 µM
Method in brief: (§1)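 Cancer cell lines were plated in 1536-well plates in 7.5 μl of DMEM/F12 or RPMI with 10% FBS and kept 24 hours at 37°C and 5% CO2 before 72 hours of dosing, with final DMSO typically 0.2%. CellTiter-Glo 2.0 luminescence measured viability, scaled between blank-well and DMSO-well means. Dose responses were fitted to a two-parameter logistic curve with a non-linear mixed effects model. This fit gives the single-agent IC50.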

Paclitaxel = compound: CC(=O)O[C@H]1C(=O)[C@@]2(C)[C@H]([C@H](OC(=O)c3ccccc3)[C@]3(O)C[C@H](OC(=O)[C@H](O)[C@@H](NC(=O)c4ccccc4)c4ccccc4)C(C)=C1C3(C)C)[C@]1(OC(C)=O)CO[C@@H]1C[C@@H]2O [Paclitaxel]; conditions: max 3 µM
Method in brief: as §1

Taselisib = compound: Cc1nc(-c2cn3c(n2)-c2ccc(-c4cnn(C(C)(C)C(N)=O)c4)cc2OCC3)n(C(C)C)n1 [Taselisib]; conditions: max 10 µM
Method in brief: as §1

[1] = compound: O=C(Nc1ccc2[nH]nc(-c3ccncc3)c2c1)[C@@H]1CCN(CC(=O)N2CCN(c3ccc(-c4ncccn4)cc3)CC2)C1; conditions: max 5 µM
Method in brief: as §1

Etoposide = compound: COc1cc([C@@H]2c3cc4c(cc3[C@@H](O[C@@H]3O[C@@H]5CO[C@@H](C)O[C@H]5[C@H](O)[C@H]3O)[C@H]3COC(=O)[C@H]23)OCO4)cc(OC)c1O [Etoposide]; conditions: max 10 µM
Method in brief: as §1

AZD1775 = compound: C=CCn1c(=O)c2cnc(Nc3ccc(N4CCN(C)CC4)cc3)nc2n1-c1cccc(C(C)(C)O)n1 [AZD1775]; conditions: max 3 µM
Method in brief: as §1

AZD1390 = compound: CC(C)n1c(=O)n(C)c2cnc3cc(F)c(-c4ccc(OCCCN5CCCCC5)nc4)cc3c21 [AZD1390]; conditions: max 0.3 µM
Method in brief: as §1

Gefitinib = compound: COc1cc2ncnc(Nc3ccc(F)c(Cl)c3)c2cc1OCCCN1CCOCC1 [Gefitinib]; conditions: max 10 µM
Method in brief: as §1

5-Fluorouracil = compound: O=c1[nH]cc(F)c(=O)[nH]1 [5-Fluorouracil]; conditions: max 20 µM
Method in brief: as §1

SRA737 = compound: N#Cc1cnc(Nc2cc(NC[C@H]3CNCCO3)c(C(F)(F)F)cn2)cn1 [SRA737]; conditions: max 10 µM
Method in brief: as §1

Trametinib = compound: CC(=O)Nc1cccc(-n2c(=O)n(C3CC3)c(=O)c3c(Nc4ccc(I)cc4F)n(C)c(=O)c(C)c32)c1 [Trametinib]; conditions: max 1 µM
Method in brief: as §1

SN-38 = compound: CCc1c2c(nc3ccc(O)cc13)-c1cc3c(c(=O)n1C2)COC(=O)[C@]3(O)CC [SN-38]; conditions: max 0.3 µM
Method in brief: as §1

AZD5363 = compound: C1CN(CCC1(C(=O)N[C@@H](CCO)C2=CC=C(C=C2)Cl)N)C3=NC=NC4=C3C=CN4 [AZD5363]; conditions: max 10 µM
Method in brief: as §1

Carboplatin = compound: C1CC(C1)(C(=O)[O-])C(=O)[O-].N.N.[Pt+2] [Carboplatin]; conditions: max 10 µM
Method in brief: as §1

Alisertib = compound: COc1cc(Nc2ncc3c(n2)-c2ccc(Cl)cc2C(c2c(F)cccc2OC)=NC3)ccc1C(=O)O [Alisertib]; conditions: max 10 µM
Method in brief: as §1

Savolitinib = compound: C[C@@H](c1ccc2nccn2c1)n1nnc2ncc(-c3cnn(C)c3)nc21 [Savolitinib]; conditions: max 1 µM
Method in brief: as §1

Palbociclib = compound: CC(=O)c1c(C)c2cnc(Nc3ccc(N4CCNCC4)cn3)nc2n(C2CCCC2)c1=O [Palbociclib]; conditions: max 10 µM
Method in brief: as §1

MK-2206 = compound: NC1(c2ccc(-c3nc4ccn5c(=O)[nH]nc5c4cc3-c3ccccc3)cc2)CCC1 [MK-2206]; conditions: max 10 µM
Method in brief: as §1

Olaparib = compound: O=C(c1cc(Cc2n[nH]c(=O)c3ccccc23)ccc1F)N1CCN(C(=O)C2CC2)CC1 [Olaparib]; conditions: max 10 µM
Method in brief: as §1

Crizotinib = compound: C[C@@H](Oc1cc(-c2cnn(C3CCNCC3)c2)cnc1N)c1c(Cl)ccc(F)c1Cl [Crizotinib]; conditions: max 10 µM
Method in brief: as §1

Lapatinib = compound: CS(=O)(=O)CCNCc1ccc(-c2ccc3ncnc(Nc4ccc(OCc5cccc(F)c5)c(Cl)c4)c3c2)o1 [Lapatinib]; conditions: max 10 µM
Method in brief: as §1

AZD7648 = compound: Cc1cc2ncnn2cc1Nc1ncc2c(n1)n(C1CCOCC1)c(=O)n2C [AZD7648]; conditions: max 10 µM
Method in brief: as §1

AZD8186 = compound: C[C@@H](Nc1cc(F)cc(F)c1)c1cc(C(=O)N(C)C)cc2c(=O)cc(N3CCOCC3)oc12 [AZD8186]; conditions: max 10 µM
Method in brief: as §1

AZD2811 = compound: CCN(CCO)CCCOc1ccc2c(Nc3cc(CC(=O)Nc4cccc(F)c4)[nH]n3)ncnc2c1 [AZD2811]; conditions: max 1 µM
Method in brief: as §1

Venetoclax = compound: CC1(C)CCC(CN2CCN(c3ccc(C(=O)NS(=O)(=O)c4ccc(NCC5CCOCC5)c([N+](=O)[O-])c4)c(Oc4cnc5[nH]ccc5c4)c3)CC2)=C(c2ccc(Cl)cc2)C1 [Venetoclax]; conditions: max 1 µM
Method in brief: as §1

AZD0156 = compound: CN(C)CCCOc1ccc(-c2ccc3ncc4c(c3c2)n(C2CCOCC2)c(=O)n4C)cn1 [AZD0156]; conditions: max 3 µM
Method in brief: as §1

AZD6738 = compound: C[C@@H]1COCCN1C2=NC(=NC(=C2)C3(CC3)[S@](=N)(=O)C)C4=C5C=CNC5=NC=C4 [AZD6738]; conditions: max 10 µM
Method in brief: as §1

AZD5153 = compound: COc1nnc2ccc(N3CCC(c4ccc(OCCN5CCN(C)C(=O)[C@H]5C)cc4)CC3)nn12 [AZD5153]; conditions: max 1 µM
Method in brief: as §1

Prexasertib = compound: COc1cccc(OCCCN)c1-c1cc(Nc2cnc(C#N)cn2)n[nH]1 [Prexasertib]; conditions: max 1 µM
Method in brief: as §1

Selumetinib = compound: Cn1cnc2c(F)c(Nc3ccc(Br)cc3Cl)c(C(=O)NOCCO)cc21 [Selumetinib]; conditions: max 10 µM
Method in brief: as §1

AZD5991 = compound: Cc1c2c(nn1C)CSCc1cc(n(C)n1)CSc1cc(c3ccccc3c1)OCCCc1c(C(=O)O)n(C)c3c-2c(Cl)ccc13 [AZD5991]; conditions: max 1 µM
Method in brief: as §1

Dasatinib = compound: CC1=C(C(=CC=C1)Cl)NC(=O)C2=CN=C(S2)NC3=CC(=NC(=N3)C)N4CCN(CC4)CCO [Dasatinib]; conditions: max 2 µM
Method in brief: as §1

SG3199 = compound: CC1=CN2[C@@H](C1)C=NC3=CC(=C(C=C3C2=O)OC)OCCCCCOC4=C(C=C5C(=C4)N=C[C@@H]6CC(=CN6C5=O)C)OC [SG3199]; conditions: max 0.001 µM
Method in brief: as §1

Doxorubicin = compound: COc1cccc2c1C(=O)c1c(O)c3c(c(O)c1C2=O)C[C@@](O)(C(=O)CO)C[C@@H]3O[C@H]1C[C@H](N)[C@H](O)[C@H](C)O1 [Doxorubicin]; conditions: max 1 µM
Method in brief: as §1

AZD4320 = compound: CN(CC[C@H](CSC1=CC=CC=C1)NC2=C(C=C(C=C2)S(=O)(=O)NC(=O)C3=CC=C(C=C3)N4CCC(CC4)[C@H](C5=CC=CC=C5C6=CC=C(C=C6)Cl)O)S(=O)(=O)C(F)(F)F)CCO [AZD4320]; conditions: max 1 µM
Method in brief: as §1

| Cell Line | IC50, cell viability 72 h (Gemcitabine) [µM] | IC50, cell viability 72 h (Paclitaxel) [µM] | IC50, cell viability 72 h (Taselisib) [µM] | IC50, cell viability 72 h [1] [µM] | IC50, cell viability 72 h (Etoposide) [µM] | IC50, cell viability 72 h (AZD1775) [µM] | IC50, cell viability 72 h (AZD1390) [µM] | IC50, cell viability 72 h (Gefitinib) [µM] | IC50, cell viability 72 h (5-Fluorouracil) [µM] | IC50, cell viability 72 h (SRA737) [µM] | IC50, cell viability 72 h (Trametinib) [µM] | IC50, cell viability 72 h (SN-38) [µM] | IC50, cell viability 72 h (AZD5363) [µM] | IC50, cell viability 72 h (Carboplatin) [µM] | IC50, cell viability 72 h (Alisertib) [µM] | IC50, cell viability 72 h (Savolitinib) [µM] | IC50, cell viability 72 h (Palbociclib) [µM] | IC50, cell viability 72 h (MK-2206) [µM] | IC50, cell viability 72 h (Olaparib) [µM] | IC50, cell viability 72 h (Crizotinib) [µM] | IC50, cell viability 72 h (Lapatinib) [µM] | IC50, cell viability 72 h (AZD7648) [µM] | IC50, cell viability 72 h (AZD8186) [µM] | IC50, cell viability 72 h (AZD2811) [µM] | IC50, cell viability 72 h (Venetoclax) [µM] | IC50, cell viability 72 h (AZD0156) [µM] | IC50, cell viability 72 h (AZD6738) [µM] | IC50, cell viability 72 h (AZD5153) [µM] | IC50, cell viability 72 h (Prexasertib) [µM] | IC50, cell viability 72 h (Selumetinib) [µM] | IC50, cell viability 72 h (AZD5991) [µM] | IC50, cell viability 72 h (Dasatinib) [µM] | IC50, cell viability 72 h (SG3199) [µM] | IC50, cell viability 72 h (Doxorubicin) [µM] | IC50, cell viability 72 h (AZD4320) [µM] |
| --- | --- | --- | --- | --- | --- | --- | --- | --- | --- | --- | --- | --- | --- | --- | --- | --- | --- | --- | --- | --- | --- | --- | --- | --- | --- | --- | --- | --- | --- | --- | --- | --- | --- | --- | --- |
| EW-11 (Ewing's Sarcoma) | 0.0557 | 0.0356 | 1 | > 5 | 4.16 | > 3 | > 0.3 | > 10 | > 20 | > 10 | > 1 | 0.00846 | > 10 | > 10 | > 10 | > 1 | > 10 | 6.38 | > 10 | 5.63 | > 10 | > 10 | > 10 | > 1 | > 1 | > 3 | 5.93 | > 1 | 0.0622 | > 10 | 0.423 | > 2 | > 0.001 | 0.212 | 0.21 |
| GAMG (Glioblastoma) | 0.0881 | 0.00735 | 3.59 | > 5 | 4.44 | 1.69 | > 0.3 | > 10 | > 20 | > 10 | > 1 | 0.0555 | 8.42 | > 10 | 2.46 | > 1 | > 10 | > 10 | > 10 | > 10 | > 10 | > 10 | 2.98 | > 1 | > 1 | > 3 | > 10 | > 1 | 0.0829 | > 10 | > 1 | 1.71 | > 0.001 | 0.237 | > 1 |
| HH (T-Cell Non-Hodgkin's Lymphoma) | > 0.3 | > 3 | > 10 | > 5 | > 10 | > 3 | > 0.3 | > 10 | > 20 | > 10 | > 1 | > 0.3 | > 10 | > 10 | > 10 | > 1 | > 10 | > 10 | > 10 | > 10 | > 10 | > 10 | > 10 | > 1 | > 1 | > 3 | > 10 | > 1 | 0.186 | > 10 | 0.341 | > 2 | > 0.001 | > 1 | > 1 |
| HuCCT1 (Biliary Tract Carcinoma) | > 0.3 | 0.294 | > 10 | 1.79 | > 10 | 0.583 | > 0.3 | > 10 | > 20 | 6.75 | 0.314 | 0.184 | > 10 | > 10 | > 10 | > 1 | > 10 | > 10 | > 10 | > 10 | > 10 | > 10 | > 10 | > 1 | > 1 | > 3 | 4.36 | 0.78 | 0.0354 | 6.72 | > 1 | 0.918 | > 0.001 | 0.71 | > 1 |
| KS-1 (Glioblastoma) | > 0.3 | 0.375 | 3.46 | > 5 | > 10 | > 3 | > 0.3 | > 10 | > 20 | > 10 | 0.927 | > 0.3 | > 10 | > 10 | 3.51 | > 1 | > 10 | > 10 | > 10 | > 10 | > 10 | > 10 | > 10 | > 1 | > 1 | > 3 | > 10 | 0.264 | 0.539 | > 10 | > 1 | > 2 | > 0.001 | > 1 | > 1 |
